# Results published in ChEMBL document CHEMBL1127920, “Synthesis and biological activity of 14-hydroxydocetaxel” (Bioorg Med Chem Lett, 1994).
# Tests used:
# Format in all cases: functional, cell-based
# A549 = experiment: Cytotoxicity was evaluated in vitro against A549 (non-small cell lung carcinoma) human tumor cell lines
# A121 = experiment: Cytotoxicity was evaluated in vitro against A121 (ovarian carcinoma) human tumor cell lines
# HT-29 = experiment: Cytotoxicity was evaluated in vitro against HT-29 (colon carcinoma) human tumor cell lines
# MCF7 = experiment: Cytotoxicity was evaluated in vitro against MCF-7 (mammary carcinoma) human tumor cell lines
SMILES,IC50 (A549),IC50 (A121),IC50 (HT-29),IC50 (MCF7)
CC(=O)O[C@@]12CO[C@@H]1C[C@H](O)[C@@]1(C)C(=O)[C@H](O)C3=C(C)[C@@H](OC(=O)[C@H](O)[C@@H](NC(=O)OC(C)(C)C)c4ccccc4)[C@@H]4OC(C)(C)O[C@]4([C@@H](OC(=O)c4ccccc4)C12)C3(C)C (some centres not stated),18 nM,46 nM,21 nM,34 nM
CC(=O)O[C@@]12CO[C@@H]1C[C@H](O)[C@@]1(C)C(=O)[C@H](O)C3=C(C)[C@@H](OC(=O)[C@H](O)[C@@H](NC(=O)OC(C)(C)C)c4ccccc4)[C@H](O)[C@@](O)([C@@H](OC(=O)c4ccccc4)C12)C3(C)C (some centres not stated),0.8 nM,3.3 nM,2.1 nM,1.9 nM
CC(=O)O[C@@]12CO[C@@H]1C[C@H](O)[C@@]1(C)C(=O)[C@H](O)C3=C(C)[C@@H](OC(=O)[C@H](O)[C@@H](NC(=O)OC(C)(C)C)c4ccccc4)C[C@@](O)([C@@H](OC(=O)c4ccccc4)[C@H]21)C3(C)C [DOCETAXEL],1 nM,1.2 nM,1.2 nM,1 nM
